According to ChEMBL document CHEMBL1671721, “Chemical validation of phosphodiesterase C as a chemotherapeutic target in Trypanosoma cruzi, the etiological agent of Chagas' disease” (Antimicrob Agents Chemother, 2010):
Values belong to the compound of their own block, whether it stands above or below them. Active and inactive are the calls of the source. No cut-off for these calls is given here.

Legend:
Trypanosoma cruzi [1] = assay: Antimicrobial activity against Trypanosoma cruzi infected in rat L6E9 myoblasts assessed as inhibition of [3H]uracil incorporation by giemsa staining; settings: L6E9, 3 h
Trypanosoma cruzi [2] = assay: Antimicrobial activity against Trypanosoma cruzi Y infected in L6E9 myoblasts assessed as inhibition of [3H]uracil incorporation at 25 uM after 3 hrs postinfection by scintillation counter; format: functional; design: scale not given: the % may be the effect or the level left
Trypanosoma cruzi [3] = assay: Antimicrobial activity against Trypanosoma cruzi Y infected in L6E9 myoblasts assessed as inhibition of [3H]uracil incorporation at 1 uM after 3 hrs postinfection by scintillation counter; format: functional; design: scale not given: the % may be the effect or the level left
[4] = target: T1, Cyclic nucleotide specific phosphodiesterase (Trypanosoma cruzi, UniProt Q53I59); assay: Inhibition of Trypanosoma cruzi Y PDEC after 30 mins
T1 sequence (Q53I59 whole entry): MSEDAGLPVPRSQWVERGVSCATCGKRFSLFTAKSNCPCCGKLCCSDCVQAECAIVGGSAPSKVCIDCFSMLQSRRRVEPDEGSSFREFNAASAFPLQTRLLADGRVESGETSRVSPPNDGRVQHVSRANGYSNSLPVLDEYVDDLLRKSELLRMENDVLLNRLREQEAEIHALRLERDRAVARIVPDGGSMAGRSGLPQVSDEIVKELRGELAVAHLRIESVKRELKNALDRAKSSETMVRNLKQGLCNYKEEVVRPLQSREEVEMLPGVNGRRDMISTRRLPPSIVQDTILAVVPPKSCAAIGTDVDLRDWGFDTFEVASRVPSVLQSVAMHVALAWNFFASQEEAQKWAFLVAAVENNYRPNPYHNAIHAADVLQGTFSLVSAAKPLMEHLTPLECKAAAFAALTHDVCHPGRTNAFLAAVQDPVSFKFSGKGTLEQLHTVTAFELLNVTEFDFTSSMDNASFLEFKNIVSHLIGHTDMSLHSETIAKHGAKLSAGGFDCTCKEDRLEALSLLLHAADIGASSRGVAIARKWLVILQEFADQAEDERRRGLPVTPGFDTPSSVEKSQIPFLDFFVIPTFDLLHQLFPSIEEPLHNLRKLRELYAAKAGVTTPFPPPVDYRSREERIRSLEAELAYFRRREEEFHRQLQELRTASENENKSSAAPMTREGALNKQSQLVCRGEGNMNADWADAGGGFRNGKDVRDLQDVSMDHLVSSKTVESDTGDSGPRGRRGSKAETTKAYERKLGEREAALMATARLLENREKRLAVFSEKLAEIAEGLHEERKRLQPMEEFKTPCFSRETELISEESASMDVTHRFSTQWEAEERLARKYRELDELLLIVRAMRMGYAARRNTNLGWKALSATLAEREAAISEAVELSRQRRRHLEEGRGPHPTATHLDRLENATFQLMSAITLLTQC

[5] = target: T2, Cyclic nucleotide specific phosphodiesterase (Trypanosoma cruzi) (UniProt Q53I59); assay: Inhibition of Trypanosoma cruzi Y PDEC assessed as cAMP accumulation at 4.5 to 45 uM after 1 to 5 mins by luminescence spectrophotometry
T2 sequence (whole entry): T1 sequence (Q53I59 whole entry)

[6] = target: T2, Cyclic nucleotide specific phosphodiesterase (Trypanosoma cruzi); assay: Inhibition of Trypanosoma cruzi Y PDEC assessed as cAMP accumulation at 26 uM after 1 to 5 mins by luminescence spectrophotometry
[7] = target: T2, Cyclic nucleotide specific phosphodiesterase (Trypanosoma cruzi); assay: Inhibition of Trypanosoma cruzi Y PDEC assessed as volume recovery preincubated with 8.7 uM compound measured after 10 mins by light scattering
[8] = target: T2, Cyclic nucleotide specific phosphodiesterase (Trypanosoma cruzi); assay: Inhibition of Trypanosoma cruzi Y PDEC assessed as cAMP accumulation at 90 uM after 1 to 5 mins by luminescence spectrophotometry
[9] = Cytotoxicity against rat L6E9 myoblasts at 1 to 25 uM
Phosphodiesterase 4 = Phosphodiesterase 4 (Homo sapiens, UniProt P27815+Q08499+Q07343+Q08493); assay: Inhibition of human PDE4 after 30 mins; format: protein assay
[10] = target: T2, Cyclic nucleotide specific phosphodiesterase (Trypanosoma cruzi); assay: Inhibition of Trypanosoma cruzi Y PDEC assessed as decrease in osmolarity preincubated with 8.7 uM compound measured after 10 mins by light scattering
[11] = target: T2, Cyclic nucleotide specific phosphodiesterase (Trypanosoma cruzi); assay: Inhibition of Trypanosoma cruzi Y PDEC assessed as cAMP accumulation at 43 uM after 1 to 5 mins by luminescence spectrophotometry
Trypanosoma cruzi [12] = assay: Antimicrobial activity against Trypanosoma cruzi Y infected in rat L6E9 myoblasts assessed as inhibition of [5,6-3H]uracil incorporation after 3 days postinfection by scintillation counter; format: functional, organism-based

IC50 (Trypanosoma cruzi [1]): 2.8 µM
Structure (SMILES): CC1CS(=O)(=O)CCN1/N=C/c1ccc([N+](=O)[O-])o1 (stereo not given) [NIFURTIMOX]

IC50 [4]: 4.1 µM
Structure (SMILES): O=C1c2ccccc2C(=O)N1Cc1csc(-c2cccs2)n1
Activity (Trypanosoma cruzi [2]): 98% | Activity (Trypanosoma cruzi [3]): 51%

IC50 (Trypanosoma cruzi [1]): 3.7 µM
Structure (SMILES): O=C(Cn1ccnc1[N+](=O)[O-])NCc1ccccc1 [BENZNIDAZOLE]

inhibition [5]: Active | inhibition [6]: Active | inhibition [7]: inactive | inhibition [8]: Active | IC50 (Phosphodiesterase 4): 29 µM | inhibition [10]: inactive | inhibition [11]: Active | IC50 [4]: 6.5 µM
Structure (SMILES): CCCC(=O)c1ccc(OC2CCN(C(=O)OC(C)(C)C)CC2)c(OC)c1
Activity [9]: Non-toxic | IC50 (Trypanosoma cruzi [12]): 3.3 µM
